Laboratory results taken from patent publication US20130023645A1 (priority 2006, published 2013).
Values joined by “and” are separate entries in the source; they are usually repeats but may differ in a detail not shown here. Equal values may be shown once. Positions of bridges follow the written chain, without caps; N, C: chain ends. Non-standard residues stand in square brackets, D forms with d. Residues, ends and D or L forms follow the SMILES beside them. ξ: configuration not given here. Ala(indol-2-yl) = N[C@@H](Cc1cc2ccccc2[nH]1)C(=O)O; AllylGly = C=CC[C@H](N)C(=O)O; ξP = O=C(O)C1CCCN1

Molecular target: T1, neuronal-type nicotinic receptors (Bos taurus, UniProt Q07263+Q8SPU6)
T1 construct: monolayer cultures of bovine adrenal chromaffin cells; endogenous in cells; host or cells: bovine adrenal chromaffin cells (primary monolayer cultures)
T1 sequence (Q07263 22-495): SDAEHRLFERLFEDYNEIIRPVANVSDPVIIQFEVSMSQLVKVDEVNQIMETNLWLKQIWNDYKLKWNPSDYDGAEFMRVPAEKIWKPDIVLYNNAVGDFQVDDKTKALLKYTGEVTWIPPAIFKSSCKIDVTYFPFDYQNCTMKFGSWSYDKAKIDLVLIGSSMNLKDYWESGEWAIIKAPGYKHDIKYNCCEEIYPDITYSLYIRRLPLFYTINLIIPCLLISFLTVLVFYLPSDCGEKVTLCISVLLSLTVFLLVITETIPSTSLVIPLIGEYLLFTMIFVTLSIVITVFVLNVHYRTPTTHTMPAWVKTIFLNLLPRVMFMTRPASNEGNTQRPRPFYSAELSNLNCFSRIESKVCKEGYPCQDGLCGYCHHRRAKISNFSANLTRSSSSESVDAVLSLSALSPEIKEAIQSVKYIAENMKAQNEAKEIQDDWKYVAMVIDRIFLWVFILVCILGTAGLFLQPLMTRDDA
T1 sequence (Q8SPU6 20-496): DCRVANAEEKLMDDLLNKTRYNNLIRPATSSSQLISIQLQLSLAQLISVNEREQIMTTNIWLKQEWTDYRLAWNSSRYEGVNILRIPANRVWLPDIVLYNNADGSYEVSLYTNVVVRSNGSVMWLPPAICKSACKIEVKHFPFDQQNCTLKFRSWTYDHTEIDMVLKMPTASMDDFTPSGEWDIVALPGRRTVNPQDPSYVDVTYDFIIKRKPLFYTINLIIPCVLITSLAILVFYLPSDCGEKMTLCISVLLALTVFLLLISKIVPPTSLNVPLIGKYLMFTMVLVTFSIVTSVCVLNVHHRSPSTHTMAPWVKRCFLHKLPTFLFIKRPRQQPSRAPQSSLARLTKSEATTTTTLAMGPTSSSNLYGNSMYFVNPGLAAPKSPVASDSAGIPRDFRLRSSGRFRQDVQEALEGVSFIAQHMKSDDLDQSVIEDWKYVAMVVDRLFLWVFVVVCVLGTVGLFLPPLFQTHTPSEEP
Assay type: cell-based, bovine

In the case of `C[C@@H]1NC(=O)[C@@H]2CSSC[C@H](NC(=O)CN)C(=O)N[C@@H](CC=CC[C@@H](C(N)=O)NC(=O)[C@H](CCCNC(=N)N)NC(=O)[C@H](Cc3cc4ccccc4[nH]3)NC1=O)C(=O)N[C@@H](CO)C(=O)N[C@@H](CC(=O)O)C(=O)N1CCCC1C(=O)N[C@@H](CCCNC(=N)N)C(=O)N2` (stereo partly drawn) [compound 119, [2,8]-Cystino-[3,12]-Dicarba Conotoxin ImI: NH2-Gly-Cys-c[Hag-Ser-Asp-Pro-Arg-Cys-Ala-Trp-Arg-Hag]-NH2] (H-GC[AllylGly]SD[ξP]RCA[Ala(indol-2-yl)]R[AllylGly]-NH2; disulfide 2-8; staple 3-12), the “Adrenaline Release, % control” value is reported as 83.420% and 58.888%, the “Adrenaline Release, mean” value is reported as 3.77% and 2.76% and the “Adrenaline Release, single determinations (1st-4th)” value is reported as 3.31% and 3.67% and 4.14% and 3.98% and 2.32% and 2.95% and 2.76% and 3.02%. For the same compound, the “Noradrenaline Release, % control” value was 55.971% and 78.400%, the “Noradrenaline Release, % inhibition” value was 21.600% and the “Noradrenaline Release, mean” value was 4.15% and 5.52%. The “Noradrenaline Release, single determinations (1st-4th)” value was 3.22% and 4.58% and 3.99% and 4.81% and 4.89% and 5.75% and 5.73% and the “noradrenaline released, basal release (0.72%) subtracted” value was 3.43%.
